Data published in patent US7091351B2, “Vanadium compounds for treating cancer” (Parker Hughes Institute, priority 1998, dated 2006).
Several values for one entry are separate records, joined by “and”; a condition that tells them apart may be missing. Equal entries are not always repeated.

Assays:
Format in all cases: cell-based, human
[1] = test system: Tera-2 testicular cancer cells; assay: MTT cytotoxicity assay of vanadocenes, TERA-2 cells; details: 24 h, 1.9-250 μM
Procedure, shortened: (§1)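 IC50 values come from MTT colorimetry (540 nm) after 24 h drug treatment at 1.9–250 μM in two-fold steps, started 24 h post-seeding. Formazan formed over 4 h at 37 °C and was solubilized overnight in 10% SDS/0.1% HCl; triplicate wells, 0.25% DMSO solvent control.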

[2] = test system: Ntera-2 testicular cancer cells; assay: MTT cytotoxicity assay of vanadocenes, NTERA-2 cells; details: 24 h, 1.9-250 μM
Procedure, shortened: as §1

[3] = test system: NALM-6 B-lineage acute lymphoblastic leukemia cells; assay: MTT cytotoxicity assay of vanadocenes, NALM-6 cells; details: 24 h
Experimental: Human testicular cancer cell lines, Tera-2 (embryonal carcinoma) and Ntera-2 (pluripotent embryonal carcinoma) were obtained from the American Type Culture Collection (ATCC) (Rockeville, Md.) and propagated in T-25, T-75, or T-150 cm^2 tissue culture flasks (Corning Corp., Corning, N.Y.) in McCoy's 5A medium and Dulbecco's modified Eagle's medium respectively. Both media were supplemented with 10% fetal calf serum (FCS), 4 mM glutamine, 100 U/ml penicillin G, and […] streptomycin sulfate. All tissue culture reagents were obtained from Life Technologies Inc. (GIBCO-BRL), Gaithersburg, Md. Cell lines were cultivated for a minimum of two passages after thawing prior to experimentation. Other cell lines that were used in this study were the human B-lineage acute lymphoblastic leukemia (ALL) cell line NALM-6. Uckun, F. M., Evans, W. E., Forsyth, C. J., Waddick, K. G., Tuel-Ahlgren, L., Chelstrom, L. M., Burkhardt, A., Bolen, J., Myers, D. E. Biotherapy of B-cell precursor leukemia by targeting genistein to CD19-associated tyrosine kinase. Science (Washington DC) 267:886–91, 1995; T-lineage ALL cell line MOLT-3, Waurzyniak, B., Shneider, E. A., Tumer, N., Yanishevski, Y., Gunther, R., Chelstrom, L., Wendorf, H., Myers, D. E., Irvin, J. D., Messinger, Y., Ek, O., Zeren, T., Chandan-Langlie, M., Evans, W. E., Uckun, F. M. In vivo toxicity, pharmacokinetics, and antileukemic activity of TXU (anti-CD7)-pokeweed antiviral protein immunotoxin. Clinical Cancer Research 3:881–890, 1997; AML cell line HL-60, Perentesis, J. P., Waddick, K. G., Bendel, A. E., Shao, Y., Warman, B. E., Chandan-Langlie, M., and Uckun, F. M. Induction of apoptosis in multi-drug resistant andradiation-resistant acute myeloid leukemia cells by a recombinant fusion toxin directed against the granulocyte macrophage colony stimulating factor receptor. Clin. Cancer Res. 3:347–355, 1997; breast cancer cell lines MDA-MB-231 and BT-20, Uckun, F. M., Narla, R. K., Jun, X., Zeren, T., Venkatachalam, T., Waddick, K. G., Rostostev, A., Myers, D. E. Cytotoxic activity of EGF-genstein against breast cancer cells. Clin. Cancer Res. 4:901–912, 1998; glioblastoma cell lines U87 and U373, Narla, R. K., Liu, X., Myers, D. E., and Uckun, F. M. 4-(3′-Bromo-4′hydroxylphenyl)-amino-6,7-dimethoxyquinazoline (WHI-P154): A novel quinazoline derivative with potent cytotoxic activity against human glioblastoma cells. Clin. Cancer Res. 4:1405–1414, 1998.
MTT (3-[4,5-dimethyl thiazol-2-yl]-2,5-diphenyltetrazolium bromide)-based colorimetric assays were used for evaluation of the cytotoxicity of vanadocene compounds. Mosmann, T. Rapid colorimetric assay for cellular growth and survival: application to proliferation and cytotoxicity assays. J. Immunol. Methods, 65: 55–63, 1983. Briefly, cells were harvested with 0.125% (w/v) trypsin-0.02% EDTA (GIBCO-BRL) from exponential-phase maintenance cultures and centrifuged (300 g×5 min). After suspension and counting, cells were dispensed within triplicate 96-well tissue culture plates in 100 μl volumes. After 24 h incubation, the culture medium was discarded and replaced with 100 μl of fresh medium containing serial two-fold dilutions of drugs in medium to yield 1.9 μM to 250 μM. All compounds were reconstituted in DMSO to a concentration of 100 mM, and the stock solution was made fresh for each experiment. Control wells consisted of medium containing 0.25% of DMSO alone were used for solvent control. […]

[4] = test system: HL-60 cells; assay: MTT cytotoxicity assay of oxovanadium(IV) compounds, HL-60; details: 48 hr
Experimental: (§2) The cytotoxicity of oxovanadium (W) complexes listed in Table 6 were tested against 9 different human cancer cell lines was performed using the MTT (3-[4,5-dimethylthiazol-2-yl]-2,5-diphenyl tetrazolium bromide) assay (Boehringer Mannheim Corp., Indianapolis, Ind.) as described previously (20). Briefly, exponentially growing tumor cells were seeded into a 96-well plate at a density of 4×10^4cells/well and incubated with medium containing the oxovanadium(IV) compounds concentrations ranging from 0.1 to 250 μM for 48 hours at 37° C. in a humidified 5% CO2 atmosphere. Triplicate wells were used for each treatment. To each well, 10 μl of MTT (0.5 mg/ml final concentration) was added and the plates were incubated at 37° C. for 4 hours to allow MTT to form formazan crystals by reacting with metabolically active cells . The formazan crystals were solubilized overnight at 37° C. in a solution containing 10% SDS in 0.01 M HCl. The absorbence of each well was measured in a microplate reader (Labsystems) at 540 nm and a reference wavelength of 690 nm. To translate the OD540 values into the number of live cells in each well, the OD540 values were compared to those on standard OD540—versus—cell number curves generated for each cell line. The percent survival was calculated using the formula: % survival=Live cell number[test]/Live cell number [control]×100. The IC50 values were calculated by non-linear regression analysis using an Graphpad Prism software version 2.0 (Graphpad Software, Inc., San Diego, Calif.).

[5] = test system: HS-SULTAN multiple myeloma cells; assay: MTT cytotoxicity assay of oxovanadium(IV) compounds, HS-SULTAN; details: 48 hr
Experimental: as §2

Molecule	IC50 [1]	IC50 [2] [µM]	IC50 [3] [µM]	IC50 [4] [µM]	IC50 [5] [µM]
[Cl-].[Cl-].[V+4].c1cc[cH-]c1.c1cc[cH-]c1 [VDC, VCp2Cl2]	80.6 µM and 81 µM	74	19	–	–
bis(4,7-dimethyl-1,10-phenanthroline)sulfatooxovanadium(IV) [Compound 29]	–	–	–	0.98 ± 0.1	0.8 ± 0.05
